Reference: patent US10472336B2, “Modulators of indoleamine 2,3-dioxygenase” (GlaxoSmithKline Intellectual Property (No.2) Limited, priority 2015, dated 2019)
Counter-ions that a name gives are not always drawn.

Key:
[1] = biological target: T1, indoleamine 2, 3-dioxygenase (IDO1) (Homo sapiens, UniProt P14902); assay: HeLa IDOi assay (kynurenine detection by mass spectrometry); format: cell-based; parameters: human epithelial HeLa cells (CCL-2; host or cells: HeLa cells stimulated with human IFN-γ; conditions: IFN-γ stimulated human epithelial HeLa cells, 2 days
T1 sequence (P14902 whole entry): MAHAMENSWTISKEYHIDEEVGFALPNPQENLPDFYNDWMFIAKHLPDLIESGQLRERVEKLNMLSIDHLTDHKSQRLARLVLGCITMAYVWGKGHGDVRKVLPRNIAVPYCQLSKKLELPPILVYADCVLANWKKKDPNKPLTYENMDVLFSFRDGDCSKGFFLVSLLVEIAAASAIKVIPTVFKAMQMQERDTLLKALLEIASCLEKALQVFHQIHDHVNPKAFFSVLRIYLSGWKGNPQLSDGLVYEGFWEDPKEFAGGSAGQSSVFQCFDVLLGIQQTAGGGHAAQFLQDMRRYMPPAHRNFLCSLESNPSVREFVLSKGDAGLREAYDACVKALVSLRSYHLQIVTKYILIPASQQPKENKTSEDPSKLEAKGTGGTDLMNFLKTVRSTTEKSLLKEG
Protocol: (§1) Compounds of the present invention were tested via high-throughput cellular assays utilizing detection of kynurenine via mass spectrometry and cytotoxicity as end-points. For the mass spectrometry and cytotoxicity assays, human epithelial HeLa cells (CCL-2; ATCC®, Manassas, Va.) were stimulated with human interferon-γ (IFN-γ) (Sigma-Aldrich Corporation, St. Louis, Mo.) to induce the expression of indoleamine 2, 3-dioxygenase (IDO1). Compounds with IDO1 inhibitory properties decreased the amount of kynurenine produced by the cells via the tryptophan catabolic pathway. Cellular toxicity due to the effect of compound treatment was measured using CellTiter-Glo® reagent (CTG) (Promega Corporation, Madison, Wis.), which is based on luminescent detection of ATP, an indicator of metabolically active cells.
(§2) In preparation for the assays, test compounds were serially diluted 3-fold in DMSO from a typical top concentration of 5 mM and plated at 0.5 μL in 384-well, polystyrene, clear bottom, tissue culture treated plates with lids (Greiner Bio-One, Kremsmünster, Austria) to generate 11-point dose response curves. Low control wells (0% kynurenine or 100% cytotoxicity) contained either 0.5 μL of DMSO in the presence of unstimulated (−IFN-γ) HeLa cells for the mass spectrometry assay or 0.5 μL of DMSO in the absence of cells for the cytotoxicity assay, and high control wells (100% kynurenine or 0% cytotoxicity) contained 0.5 μL of DMSO in the presence of stimulated (+IFN-γ) HeLa cells for both the mass spectrometry and cytotoxicity assays.
Frozen stocks of HeLa cells were washed and recovered in DMEM high glucose medium with HEPES (Thermo Fisher Scientific, Inc., Waltham, Mass.) supplemented with 10% v/v certified fetal bovine serum (FBS) (Thermo Fisher Scientific, Inc., Waltham, Mass.), and 1× penicillin-streptomycin antibiotic solution (Thermo Fisher Scientific, Inc., Waltham, Mass.). The cells were diluted to 100,000 cells/mL in the supplemented DMEM medium. 50 μL of either the cell suspension, for the mass spectrometry assay, or medium alone, for the cytotoxicity assay, were added to the low control wells, on the previously prepared 384-well compound plates, resulting in 5,000 cells/well or 0 cells/well respectively. IFN-γ was added to the remaining cell suspension at a final concentration of 10 nM, and 50 μL of the stimulated cells were added to all remaining wells on the 384-well compound plates. The plates, with lids, were then placed in a 37° C., 5% CO2 humidified incubator for 2 days.
(§3) Following incubation, the 384-well plates were removed from the incubator and allowed to equilibrate to room temperature for 30 minutes. For the cytotoxicity assay, CellTiter-Glo® was prepared according to the manufacturer's instructions, and 10 μL were added to each plate well. After a twenty minute incubation at room temperature, luminescence was read on an EnVision® Multilabel Reader (PerkinElmer Inc., Waltham, Mass.). For the mass spectrometry assay, 10 μL of supernatant from each well of the compound-treated plates were added to 40 μL of acetonitrile, containing 10 μM of an internal standard for normalization, in 384-well, polypropylene, V-bottom plates (Greiner Bio-One, Kremsmünster, Austria) to extract the organic analytes. Following centrifugation at 2000 rpm for 10 minutes, 10 μL from each well of the acetonitrile extraction plates were added to 90 μL of sterile, distilled H2O in 384-well, polypropylene, V-bottom plates for analysis of kynurenine and the internal standard on the RapidFire 300 (Agilent Technologies, Santa Clara, Calif.) and 4000 QTRAP MS (SCIEX, Framingham, Mass.). MS data were integrated using Agilent Technologies' RapidFire Integrator software, and data were normalized for analysis as a ratio of kynurenine to the internal standard. […]

[2] = biological target: T1, indoleamine 2, 3-dioxygenase (IDO1); assay: PBMC IDOi assay (kynurenine detection by mass spectrometry); format: cell-based; conditions: IFN-γ and LPS stimulated human PBMC, 2 days
Protocol: as §1, with “peripheral blood mononuclear” for “epithelial HeLa”, “(PBMC) (PB003F; AllCells®, Alameda, Calif.)” for “(CCL-2; ATCC®, Manassas, Va.)”, “Mo.) and lipopolysaccharide from Salmonella minnesota (LPS) (Invivogen, San Diego, Calif.)” for “Mo.)”
as §2, with “(−IFN-γ/−LPS) PBMCs” for “(−IFN-γ) HeLa cells”, “(+IFN-γ/+LPS) PBMCs” for “(+IFN-γ) HeLa cells”
Frozen stocks of PBMCs were washed and recovered in RPMI 1640 medium (Thermo Fisher Scientific, Inc., Waltham, Mass.) supplemented with 10% v/v heat-inactivated fetal bovine serum (FBS) (Thermo Fisher Scientific, Inc., Waltham, Mass.), and 1× penicillin-streptomycin antibiotic solution (Thermo Fisher Scientific, Inc., Waltham, Mass.). The cells were diluted to 1,000,000 cells/mL in the supplemented RPMI 1640 medium. 50 μL of either the cell suspension, for the mass spectrometry assay, or medium alone, for the cytotoxicity assay, were added to the low control wells, on the previously prepared 384-well compound plates, resulting in 50,000 cells/well or 0 cells/well respectively. IFN-γ and LPS were added to the remaining cell suspension at final concentrations of 100 ng/ml and 50 ng/ml respectively, and 50 μL of the stimulated cells were added to all remaining wells on the 384-well compound plates. The plates, with lids, were then placed in a 37° C., 5% CO2 humidified incubator for 2 days.
as §3, with “and 40” for “and 10”

Row | EC50 [1] [nM] | EC50 [2] [nM] | Compound
1 | 63.1 | 25.1 | CC(C)CN(CC(C)C)c1ccc(C(C)CC(=O)O)cc1Nc1nnc(C2CC2)[nH]1 (centres unmarked) [Example 48, 3-(3-((5-cyclopropyl-4H-1,2,4-triazol-3-yl)amino)-4-(diisobutylamino)phenyl)butanoic acid]
2 | 158 | 200 | Cc1nnc(Nc2cc(C(C)CC(=O)O)ccc2N(CC(C)C)CC(C)C)[nH]1 (centres unmarked) [Example 47, 3-(4-(diisobutylamino)-3-((5-methyl-4H-1,2,4-triazol-3-yl)amino)phenyl)butanoic acid]
3 | 3.16 | 0.251 | CC(C)CN(c1ccc([C@H](C)CC(=O)O)cc1Nc1nnc(C2CC2)s1)C1CCCCC1 [Example 56, (R)-3-(4-(cyclohexyl(isobutyl)amino)-3-((5-cyclopropyl-1,3,4-thiadiazol-2-yl)amino)phenyl)butanoic acid]
4 | 31.6 | 63.1 | CC(C)CN(c1ccc(C(C)CC(=O)O)cc1NC1=N[C@H](C(F)(F)F)CS1)C1CCCCC1 (stereo partly drawn) [Example 75, 3-(4-(Cyclohexyl(isobutyl)amino)-3-(((R)-4-(trifluoromethyl)-4,5-dihydrothiazol-2-yl)amino)phenyl)butanoic Acid]
5 | 10 | 2.51 | CC(C)CN(c1ccc([C@H](C)CC(=O)O)cc1Nc1nnc(C2CC2)[nH]1)C1CCCCC1 [Example 50, (R)-3-(4-(cyclohexyl(isobutyl)amino)-3-((5-cyclopropyl-4H-1,2,4-triazol-3-yl)amino)phenyl)butanoic acid]
6 | 31.6 | 20 | CC(C)CN(c1ccc([C@H](C)CC(=O)O)cc1Nc1ccnc(Cl)n1)C1CCCCC1 [Example 63, (R)-3-(3-((2-chloropyrimidin-4-yl)amino)-4-(cyclohexyl(isobutyl)amino)phenyl)butanoic acid]
7 | 2 | 0.631 | CC(C)CN(c1ccc([C@@H](C)CC(=O)O)cc1Nc1nnc(C2CC2)s1)C1CCCCC1 [Example 57, (S)-3-(4-(cyclohexyl(isobutyl)amino)-3-((5-cyclopropyl-1,3,4-thiadiazol-2-yl)amino)phenyl)butanoic acid]
8 | 3.16 | 0.631 | CC(C)CN(CC(C)C)c1ccc(C(C)CC(=O)O)cc1Nc1nnc(C(F)(F)F)s1 (centres unmarked) [Example 55, 3-(4-(diisobutylamino)-3-((5-(trifluoromethyl)-1,3,4-thiadiazol-2-yl)amino)phenyl)butanoic acid, 2,2,2-trifluoroacetic acid salt]
9 | 6.31 | 0.794 | CC(C)CN(c1ccc(C(CC(=O)O)C(F)(F)F)cc1Nc1nc(Cl)ns1)C1CCCCC1 (centres unmarked) [Example 71, 3-(3-((3-Chloro-1,2,4-thiadiazol-5-yl)amino)-4-(cyclohexyl(isobutyl)amino)phenyl)-4,4,4-trifluorobutanoic Acid]

Continued, compound first:

Row | Compound | EC50 [1] [nM] | EC50 [2] [nM]
10 | CC(C)CN(CC(C)C)c1ccc([C@@H](C)CC(=O)O)cc1Nc1nc(Cl)ns1 [Example 41, (S)-3-(3-((3-chloro-1,2,4-thiadiazol-5-yl)amino)-4-(diisobutylamino)phenyl)butanoic acid] | 63.1 | 10
11 | CC(C)CN(CC(C)C)c1ccc(C(C)CC(=O)O)cc1Nc1ccncc1 (centres unmarked) [Example 18, 3-(4-(diisobutylamino)-3-(pyridin-4-ylamino)phenyl)butanoic acid] | 316 | 200
12 | CC(C)CN(c1ccc([C@@H](C)CC(=O)O)cc1Nc1nc(C(F)(F)F)ns1)C1CCCCC1 [Example 37, (S)-3-(4-(cyclohexyl(isobutyl)amino)-3-((3-(trifluoromethyl)-1,2,4-thiadiazol-5-yl)amino)phenyl)butanoic acid] | 2 | 1
13 | CC(C)CN(c1ccc(C(C)CC(=O)O)cc1Nc1nnc(C(F)(F)F)s1)C1CCCCC1 (centres unmarked) [Example 29, 3-(4-(cyclohexyl(isobutyl)amino)-3-((5-(trifluoromethyl)-1,3,4-thiadiazol-2-yl)amino)phenyl)butanoic acid] | 3.16 | 0.316
14 | CC(C)CN(CC(C)C)c1ccc(C(C)CC(=O)O)cc1Nc1nc(C(F)(F)F)ns1 (centres unmarked) [Example 34, 3-(4-(diisobutylamino)-3-((3-(trifluoromethyl)-1,2,4-thiadiazol-5-yl)amino)phenyl)butanoic acid] | 3.98 | 5.01
15 | CC(C)CN(c1ccc([C@H](C)CC(=O)O)cc1Nc1nc(C(F)(F)F)ns1)C1CCCCC1 [Example 38, (R)-3-(4-(cyclohexyl(isobutyl)amino)-3-((3-(trifluoromethyl)-1,2,4-thiadiazol-5-yl)amino)phenyl)butanoic acid] | 3.98 | 1
16 | Cc1ccccc1CNc1cc(C(C)CC(=O)O)ccc1N(CC(C)C)C1CCCCC1 (centres unmarked) [Example 23, 3-(4-(cyclohexyl(isobutyl)amino)-3-((2-methylbenzyl)amino)phenyl)butanoic acid] | 316 | 200
